Reference: the NIST ThermoML archive (doi:10.1021/acs.jced.8b00678)
Where “and” joins values, the source holds several entries; their conditions need not be identical. Equal entries are not always repeated. ± gives the expanded uncertainty stated by the source.

assay: refractive index (Na D-line) (dimensionless); wn = mass fraction of the nth substance listed; conditions: 298.15 K; 84.5 kPa; Liquid; Standard Abbe refractometry; w1 = 0.02

refractive index	SMILES
1.33525 ± 0.00055	O=C(CO)[C@@H](O)[C@H](O)[C@H](O)CO [D-fructose] + O
1.33529 ± 0.00055	O=C[C@H](O)[C@@H](O)[C@H](O)[C@H](O)CO [D-glucose] + O
1.33518 ± 0.00055	OC[C@H]1O[C@@](CO)(O[C@H]2O[C@H](CO)[C@@H](O)[C@H](O)[C@H]2O)[C@@H](O)[C@@H]1O [D-sucrose] + O
1.33523 ± 0.00055	O=C[C@H](O)[C@@H](O)[C@@H](O)CO [L-arabinose] + O

SMILES	refractive index
CCCCn1cc[n+](C)c1.F[B-](F)(F)F [1-butyl-3-methylimidazolium tetrafluoroborate] + O	1.3339 ± 0.00055 and 1.33393 ± 0.00055 and 1.33391 ± 0.00055
